From article PMC6175062, “Gaining Mechanistic Insight Into Coproporphyrin I as Endogenous Biomarker for OATP1B‐Mediated Drug–Drug Interactions Using Population Pharmacokinetic Modeling and Simulation” (Clinical Pharmacology and Therapeutics, 2018)
Read-outs that look alike come from different tables or passages of the source.

Tests used:
[1] = test system: OATP1B-mediated CPI uptake in human hepatocytes; test: Rifampicin inhibition of CPI uptake in plated human hepatocytes; assay type: cell-based
Method: The in vitro IC50 for rifampicin was assessed using CPI and RSV as OATP probe substrates in plated human hepatocytes. Cryopreserved human hepatocytes (Donor QQE, BioreclamationIVT, Baltimore, MD) were thawed and plated at a density of 350,000 cells (1). After culturing for 4h, hepatocytes were washed twice with Dulbecco's phosphate-buffered saline and pre-incubated for an hour with either buffer or rifampicin (0.01-100µM). Following pre-incubation, the medium was replaced with CPI (0.30µM) or RSV (2µM) containing rifampicin (0-100µM). Incubations were stopped after 3 or 5 minutes (for RSV and CPI,respectively) using the washing protocol described previously (2). Monolayers were lysed with water and frozen overnight and then prepared for protein quantification (BCA assay) and LC-MS/MS analysis.
Lysate concentrations were used to demine uptake rates over a series of free RIF concentrations measured in the medium and plotted as a % of the control to estimate RIF IC50 (Main article Figure 5A and Figure S1). RIF IC50 was determined using equation 1, where U denotes the uptake rate (% vs control) at the free inhibitor concentration in the incubation [I] (µM); R, the range of inhibition; B, the un-inhibitable background (%), and S, the slope factor (GraFit v6).

OATP1B1 = settings: cited from earlier work
OATP2B1 = test system: OATP2B1; set-up: method as in PMID 24617605, PMID 20102298; settings: inconsistent data; read-out: IC50, OATP2B1 inhibition; cited from earlier work

CO[C@H]1/C=C/O[C@@]2(C)Oc3c(C)c(O)c4c(O)c(c(/C=N/N5CCN(C)CC5)c(O)c4c3C2=O)NC(=O)/C(C)=C\C=C\[C@H](C)[C@H](O)[C@@H](C)[C@@H](O)[C@@H](C)[C@H](OC(C)=O)[C@@H]1C [rifampicin]
IC50 with CPI in hepatocytes, fold lower than reported values in transfected OATP1B1 cells [1]: up to 10 fold | increase in potency of inhibition of CPI uptake by preincubation with RIF [1]: ~2 fold | in vitro hepatocyte inhibition parameter (after preincubation) relative to in vivo Ki ([1]; in vitro higher than in vivo): 4 fold | IC50 (OATP1B1; substrate Atorvastatin 1 µM, HEK, rifampicin 0.1-630 µM, ref (11)): 2200 nM | IC50 (OATP1B1; substrate BSP 0.01 µM, HEK, rifampicin 0.01-100 µM, ref (7)): 2750 nM | IC50 (OATP1B1; substrate Coproporphyrin I 0.1 µM, CHO, rifampicin 0.1-100 µM, ref (3)): 3250 nM | IC50 (OATP1B1; substrate Coproporphyrin I 0.2 µM, HEK, rifampicin 0.1-100 µM, ref (4)): 660 nM | IC50 (OATP1B1; substrate Coproporphyrin III 0.1 µM, CHO, rifampicin 0.1-100 µM, ref (3)): 4610 nM | IC50 (OATP1B1; substrate Coproporphyrin III 0.2 µM, HEK, rifampicin 0.1-100 µM, ref (4)): 790 nM | IC50 (OATP1B1; substrate Fexofenadine 1 µM, HEK, rifampicin 0.01-100 µM, ref (10)): 423 nM | IC50 (OATP1B1; substrate GCDCA-S 1 µM, HEK, rifampicin 0.1-30 µM, ref (5)): 390 nM | IC50 (OATP1B1; substrate Nateglinide 1 µM, HEK, rifampicin 0.01-100 µM, ref (10)): 358 nM | IC50 (OATP1B1; substrate Pitavastatin 0.1 µM, HEK, rifampicin 0.01-100 µM, ref (10)): 1070 nM | IC50 (OATP1B1; substrate Pitavastatin 0.1 µM, MDCKII, rifampicin 0.1-100 µM, ref (8)): 1600 nM | IC50 (OATP1B1; substrate Pravastatin 10 µM, HEK, rifampicin 0.01-100 µM, ref (10)): 653 nM | IC50 (OATP1B1; substrate Rosuvastatin 0.1 µM, HEK, ref (9)): 1100 nM | IC50 (OATP1B1; substrate Rosuvastatin 0.1 µM, MDCKII, rifampicin 0.1-100 µM, ref (8)): 1100 nM | IC50 (OATP1B1; substrate Rosuvastatin 1 µM, HEK, rifampicin 0.01-100 µM, ref (10)): 952 nM | IC50 (OATP1B1; substrate Valsartan 1 µM, HEK, rifampicin 0.01-100 µM, ref (10)): 377 nM | IC50 (OATP1B1; substrate [3H]-E1S 0.01 µM, HEK, rifampicin 0.01-100 µM, ref (7)): 6960 nM | IC50 (OATP1B1; substrate [3H]-E2G 0.1 µM, HEK, rifampicin 0.01-100 µM, ref (7)): 585 nM | IC50 (OATP2B1): 2100 to 81000 nM
